Assay results published in patent publication US20210261538A1, “PROTEIN ARGININE METHYLTRANSFERASE 5 (PRMT5) DEGRADATION / DISRUPTION COMPOUNDS AND METHODS OF USE” (ICAHN SCHOOL OF MEDICINE AT MOUNT SINAI, priority 2018, published 2021).

Experiments:
PRMT5 substrates = assay: Arginine symmetric dimethylation (SDMA Western blot) in MCF-7 cells; assay type: cell-based; conditions: MCF-7 cells (Examples 90-92)
Description: MCF-7 cells, HEK293T cells and HeLa cells were cultured in Dulbecco's Modified Eagle Medium (DMEM) supplemented with 10% fetal bovine serum (FBS) in 5% CO2 at 37° C. Jurkat cells were cultured in RPMI 1640 medium supplemented with 10% FBS in 5% CO2 at 37° C. H2171 cells were cultured in HITES medium supplemented with 10% FBS in 5% CO2 at 37° C. HCT116 were cultured in McCoy's 5A medium supplemented with 10% fetal bovine serum (FBS) in 5% CO2 at 37° C. All the cells lines were treated with 5 μM (or indicated concentration) of PRMT5 inhibitor (EPZ015666) or degraders, or equivalent volume of DMSO for 6 days (or indicated time points). Fresh compounds were constituted in medium and used for every 2 days. The antibodies used in this study are: PRMT5 antibody (Active Motif), (3-actin antibody (Sigma), SDMA antibody (collaboration with Cell Signaling Technologies). Cell cultures were harvested at the end of compound treatments and applied subjected to western blotting assay. Briefly, cells were washed with PBS and lysed with RIPA lysis buffer for 20 minutes on ice. Then lysates were centrifuged and the clear supernatant were collected. SDS loading buffer was added to the lysates and then the mixture was boiled at 100° C. for 5 minutes. Samples were loaded to 10% or 12% SDS-PAGE gel and ran at 120V for 1.5 hours. Then the proteins were transferred to PVDF membrane and blocked in 5% milk fat at room temperature for 1 hour. Then the membranes were incubated with indicated antibodies at 4° C. overnight. Membranes were washed with PBST buffer three times for 10 minutes each time and incubated with HRP-conjugated (horse radish peroxidase) secondary antibodies at room temperature for 1 hour. Again the membranes were washed with PBST buffer three times for 10 minutes each time. Finally, the indicated proteins on the membranes were visualized with ECL (enhanced chemiluminescence) reagents. MCF-7 cells were treated with EPZ015666 or YS43-22 at indicated compound concentrations (μM) for 6 days.

PRMT5 = PRMT5 (Homo sapiens, UniProt O14744); assay: Western blot of PRMT5 protein levels in MCF-7 cells; assay type: cell-based; parameters: endogenous in cells; host or cells: MCF-7; conditions: for suppressing PRMT5 expression: MCF-7 cells (Examples 90-92)
Description: MCF-7 cells, HEK293T cells and HeLa cells were cultured in Dulbecco's Modified Eagle Medium (DMEM) supplemented with 10% fetal bovine serum (FBS) in 5% CO2 at 37° C. Jurkat cells were cultured in RPMI 1640 medium supplemented with 10% FBS in 5% CO2 at 37° C. H2171 cells were cultured in HITES medium supplemented with 10% FBS in 5% CO2 at 37° C. HCT116 were cultured in McCoy's 5A medium supplemented with 10% fetal bovine serum (FBS) in 5% CO2 at 37° C. All the cells lines were treated with 5 μM (or indicated concentration) of PRMT5 inhibitor (EPZ015666) or degraders, or equivalent volume of DMSO for 6 days (or indicated time points). Fresh compounds were constituted in medium and used for every 2 days. The antibodies used in this study are: PRMT5 antibody (Active Motif), (3-actin antibody (Sigma), SDMA antibody (collaboration with Cell Signaling Technologies). Cell cultures were harvested at the end of compound treatments and applied subjected to western blotting assay. Briefly, cells were washed with PBS and lysed with RIPA lysis buffer for 20 minutes on ice. Then lysates were centrifuged and the clear supernatant were collected. SDS loading buffer was added to the lysates and then the mixture was boiled at 100° C. for 5 minutes. Samples were loaded to 10% or 12% SDS-PAGE gel and ran at 120V for 1.5 hours. Then the proteins were transferred to PVDF membrane and blocked in 5% milk fat at room temperature for 1 hour. Then the membranes were incubated with indicated antibodies at 4° C. overnight. Membranes were washed with PBST buffer three times for 10 minutes each time and incubated with HRP-conjugated (horse radish peroxidase) secondary antibodies at room temperature for 1 hour. Again the membranes were washed with PBST buffer three times for 10 minutes each time. Finally, the indicated proteins on the membranes were visualized with ECL (enhanced chemiluminescence) reagents. MCF-7 cells were treated with DMSO or indicated compounds at 5 μM for 6 days. […] MCF-7 cells were treated with DMSO or indicated serial dilutions of compounds for 6 days. The PRMT5 protein levels were determined by Western blot.

cancer cells = conditions: EPZ015666 alone (Jin, 2016; Kryukov, 2016); cited from earlier work
MCF-7 cells = assay: Cell proliferation assay (Cell-Titer Glo) in MCF-7 cells; assay type: cell-based; conditions: 5 μM, 10 days
Description: The same starting number of MCF-7 cells were treated with DMSO, 5 μM EPZ015666 or YS43-22 for up to 10 days. Every two days, fresh compounds were constituted in DMEM medium and added to the cell culture. Relative cell numbers were counted every two days (i.e. day 0, 2, 4, 6, 8 and 10) using Cell-Titer Glo kit (Promega). MCF-7 cells were treated with DMSO, EPZ015666 (5 μM), or YS43-22 (5 μM) for 10 days.

MTAP-deleted cells = conditions: cited from earlier work

Chain of PRMT5 (O14744 whole entry): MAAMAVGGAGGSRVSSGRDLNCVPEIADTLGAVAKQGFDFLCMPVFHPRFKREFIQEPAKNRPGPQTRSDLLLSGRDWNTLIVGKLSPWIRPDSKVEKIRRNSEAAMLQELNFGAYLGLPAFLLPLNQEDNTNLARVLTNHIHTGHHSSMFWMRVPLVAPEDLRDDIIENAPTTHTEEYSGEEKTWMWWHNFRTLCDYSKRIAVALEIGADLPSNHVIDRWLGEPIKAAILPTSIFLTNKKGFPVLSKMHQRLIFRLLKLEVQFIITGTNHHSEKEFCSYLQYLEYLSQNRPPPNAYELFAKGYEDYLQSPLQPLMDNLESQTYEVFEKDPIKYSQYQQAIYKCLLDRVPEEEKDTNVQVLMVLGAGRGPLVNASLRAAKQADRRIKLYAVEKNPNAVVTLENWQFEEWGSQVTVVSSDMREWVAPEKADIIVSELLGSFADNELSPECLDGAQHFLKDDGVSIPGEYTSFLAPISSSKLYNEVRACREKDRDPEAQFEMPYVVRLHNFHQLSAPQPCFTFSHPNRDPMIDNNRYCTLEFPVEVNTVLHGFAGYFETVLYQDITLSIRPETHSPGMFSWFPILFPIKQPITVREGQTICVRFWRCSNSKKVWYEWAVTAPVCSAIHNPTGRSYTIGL
Chain of PRMT5 (Q9BQA1 whole entry partner): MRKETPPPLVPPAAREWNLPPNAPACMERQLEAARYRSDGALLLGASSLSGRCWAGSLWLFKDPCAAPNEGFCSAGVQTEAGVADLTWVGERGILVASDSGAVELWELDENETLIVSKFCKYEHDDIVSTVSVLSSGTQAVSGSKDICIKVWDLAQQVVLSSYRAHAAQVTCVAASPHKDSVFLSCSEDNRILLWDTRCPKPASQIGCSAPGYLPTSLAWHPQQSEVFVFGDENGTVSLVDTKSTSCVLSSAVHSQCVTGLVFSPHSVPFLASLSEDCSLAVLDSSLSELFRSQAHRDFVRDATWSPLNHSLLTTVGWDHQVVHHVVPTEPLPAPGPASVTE

Row | SMILES | suppressing PRMT5 activity (PRMT5 substrates) | suppressing PRMT5 expression (PRMT5) | inhibition of cancer cell proliferation (cancer cells) | cell growth of MCF-7 cells (MCF-7 cells) | anti-proliferation effect compared with genetic PRMT5 knockdown (MTAP-deleted cells) | PRMT5 protein levels (PRMT5; MCF-7 cells, 5 μM, 6 days, Western blot) | PRMT5 protein levels, concentration and time dependence (PRMT5; MCF-7 cells, serial dilutions of compounds, 6 days, Western blot)
1 | Cc1ncsc1-c1ccc(CNC(=O)[C@@H]2C[C@@H](O)CN2C(=O)[C@@H](NC(=O)CCOCCOCCOCCOCCOCCC(=O)N2CC(Nc3cc(C(=O)NC[C@H](O)CN4CCc5ccccc5C4)ncn3)C2)C(C)(C)C)cc1 [YS43-16, N-((S)-3-(3,4-dihydroisoquinolin-2(1H)-yl)-2-hydroxypropyl)-6-((1-((S)-21-((2S,4R)-4-hydroxy-2-((4-(4-methylthiazol-5-yl)benzyl)carbamoyl)pyrrolidine-1-carbonyl)-22,22-dimethyl-19-oxo-4,7,10,13,16-pentaoxa-20-azatricosanoyl)azetidin-3-yl)amino)pyrimidine-4-carboxamide] | especially effective | especially effective | – | – | – | – | –
2 | O=C(NC[C@H](O)CN1CCc2ccccc2C1)c1cc(NC2COC2)ncn1 [EPZ015666, reference compound] | – | – | failed to optimally inhibit | significantly inhibited | did not lead to a similar anti-proliferation effect | no effect | –
3 | Cc1ncsc1-c1ccc(CNC(=O)[C@@H]2C[C@@H](O)CN2C(=O)[C@@H](NC(=O)COCCOCCOCCOCCOCC(=O)N2CC(Nc3cc(C(=O)NC[C@H](O)CN4CCc5ccccc5C4)ncn3)C2)C(C)(C)C)cc1 [YS31-60, N-((S)-3-(3,4-dihydroisoquinolin-2(1H)-yl)-2-hydroxypropyl)-6-((1-((S)-19-((2S,4R)-4-hydroxy-2-((4-(4-methylthiazol-5-yl)benzyl)carbamoyl)pyrrolidine-1-carbonyl)-20,20-dimethyl-17-oxo-3,6,9,12,15-pentaoxa-18-azahenicosanoyl)azetidin-3-yl)amino)pyrimidine-4-carboxamide] | especially effective | especially effective | – | – | – | – | –
4 | O=C1CCC(N2C(=O)c3cccc(NCCCCCCC(=O)N4CC(Nc5cc(C(=O)NC[C@H](O)CN6CCc7ccccc7C6)ncn5)C4)c3C2=O)C(=O)N1 (stereo partly drawn) [YS43-8, N-((S)-3-(3,4-dihydroisoquinolin-2(1H)-yl)-2-hydroxypropyl)-6-((1-(7-((2-(2,6-dioxopiperidin-3-yl)-1,3-dioxoisoindolin-4-yl)amino)heptanoyl)azetidin-3-yl)amino)pyrimidine-4-carboxamide] | especially effective | especially effective | – | – | – | – | concentration- and time-dependent
